Reference: patent US12358907B2, “Substituted pyrrolidine amides III” (GRÜNENTHAL GMBH, priority 2019, dated 2025)

These compounds were tested against glucocorticoid receptor (GAL4 DBD-GR) (Homo sapiens (Human), UniProt P04150) (assay: GR cell-based assays (GRE agonist / GRE antagonist), CHO-Gal4/GR luciferase reporter). Conditions: CHO-Gal4/GR reporter cells, agonist mode (EC50) or antagonist mode against beclometasone (IC50), 6 hour incubation.
glucocorticoid receptor (GAL4 DBD-GR), sequence (P04150 524-758): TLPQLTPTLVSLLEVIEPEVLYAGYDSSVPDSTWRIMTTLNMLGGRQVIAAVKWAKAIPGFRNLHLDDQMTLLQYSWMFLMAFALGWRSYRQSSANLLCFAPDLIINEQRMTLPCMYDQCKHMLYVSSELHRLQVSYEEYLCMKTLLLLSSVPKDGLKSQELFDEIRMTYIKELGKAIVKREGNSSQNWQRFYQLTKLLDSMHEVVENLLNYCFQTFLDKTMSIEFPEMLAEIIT
Method in brief: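 CHO cells stably carrying GAL4 DBD-GR ligand-binding-domain fusion and a GAL4-UAS firefly luciferase reporter were treated in Opti-MEM with 8 half-log concentrations from 10 μM to 0.003 μM (0.5% DMSO, quadruplicates). Antagonist mode measured repression of beclomethasone-induced signal. Luminescence after lysis gave EC50 or IC50.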
An IC50 of 100 to 1000 nM was found for `O=C(N[C@H]1C(CCc2ccccc2)C(=O)N(c2ccc3c(cnn3-c3ccc(F)cc3)c2)[C@@H]1c1ccccc1)C1CC1` (single isomer, unassigned) [Example 130] in this work. `CC1(C)C(=O)N(c2ccc3c(cnn3-c3ccc(F)cc3)c2)[C@H](c2ccccc2)[C@H]1NS(=O)(=O)C1CC1` [Example 35a, N-((2R,3S)-1-(1-(4-fluorophenyl)-1H-indazol-5-yl)-4,4-dimethyl-5-oxo-2-phenylpyrrolidin-3-yl)cyclopropanesulfonamide] was tested, and the IC50 was < 100 nM. In the case of `Cn1ccc(C(=O)N[C@@H]2[C@@H](c3ccccc3)N(c3ccc4c(cnn4-c4ccc(F)cc4)c3)C(=O)C2(C)C)n1` [Example 37, N-((2R,3S)-1-(1-(4-fluorophenyl)-1H-indazol-5-yl)-4,4-dimethyl-5-oxo-2-phenylpyrrolidin-3-yl)-1-methyl-1H-pyrazole-3-carboxamide], the IC50 is reported as < 100 nM. For `Cc1ncsc1C(=O)N[C@@H]1[C@@H](c2ccccc2)N(c2ccc3c(cnn3-c3ccc(F)cc3)c2)C(=O)C1(C)C` [Example 38b, N-((2R,3S)-1-(1-(4-fluorophenyl)-1H-indazol-5-yl)-4,4-dimethyl-5-oxo-2-phenylpyrrolidin-3-yl)-4-methylthiazole-5-carboxamide], the IC50 was < 100 nM. For `Cc1scnc1C(=O)N[C@@H]1[C@@H](c2ccccc2)N(c2ccc3c(cnn3-c3ccc(F)cc3)c2)C(=O)C1(C)C` [Example 39a, N-((2R,3S)-1-(1-(4-fluorophenyl)-1H-indazol-5-yl)-4,4-dimethyl-5-oxo-2-phenylpyrrolidin-3-yl)-5-methylthiazole-4-carboxamide], the IC50 was < 100 nM. `Cc1nocc1C(=O)N[C@@H]1[C@@H](c2ccccc2)N(c2ccc3c(cnn3-c3ccc(F)cc3)c2)C(=O)C1(C)C` [Example 40a, N-((2R,3S)-1-(1-(4-fluorophenyl)-1H-indazol-5-yl)-4,4-dimethyl-5-oxo-2-phenylpyrrolidin-3-yl)-3-methylisoxazole-4-carboxamide] was tested, and the IC50 was < 100 nM. `CC1(C)C(=O)N(c2ccc3c(cnn3-c3ccc(F)cc3)c2)[C@H](c2ccccc2)[C@H]1NC(=O)c1cccnc1` [Example 42a, N-((2R,3S)-1-(1-(4-fluorophenyl)-1H-indazol-5-yl)-4,4-dimethyl-5-oxo-2-phenylpyrrolidin-3-yl)nicotinamide] was tested, and the IC50 was < 100 nM. In the case of `CC1(C)C(=O)N(c2ccc3c(cnn3-c3ccc(F)cc3)c2)[C@H](c2ccccc2)[C@H]1NC(=O)c1ncccn1` [Example 43a, N-((2R,3S)-1-(1-(4-fluorophenyl)-1H-indazol-5-yl)-4,4-dimethyl-5-oxo-2-phenylpyrrolidin-3-yl)pyrimidine-2-carboxamide], the IC50 is reported as < 100 nM. `Cc1ncc(C(=O)N[C@@H]2[C@@H](c3ccccc3)N(c3ccc4c(cnn4-c4ccc(F)cc4)c3)C(=O)C2(C)C)o1` [Example 44a, N-((2R,3S)-1-(1-(4-fluorophenyl)-1H-indazol-5-yl)-4,4-dimethyl-5-oxo-2-phenylpyrrolidin-3-yl)-2-methyloxazole-5-carboxamide] was tested, and the IC50 was < 100 nM. For `Cc1ncoc1C(=O)N[C@@H]1[C@@H](c2ccccc2)N(c2ccc3c(cnn3-c3ccc(F)cc3)c2)C(=O)C1(C)C` [Example 45a, N-((2R,3S)-1-(1-(4-fluorophenyl)-1H-indazol-5-yl)-4,4-dimethyl-5-oxo-2-phenylpyrrolidin-3-yl)-4-methyloxazole-5-carboxamide], the IC50 was < 100 nM. In the case of `O=C(N[C@H]1[C@H](F)C(=O)N(c2ccc3c(cnn3-c3ccc(F)cc3)c2)[C@@H]1c1ccccc1)C1CC1` [Example 95, N-((2R,3R,4S)-4-fluoro-1-(1-(4-fluorophenyl)-1H-indazol-5-yl)-5-oxo-2-phenylpyrrolidin-3-yl)cyclopropanecarboxamide], the IC50 is reported as < 100 nM. In the case of `O=C(N[C@@H]1[C@@H](c2ccccc2)N(c2ccc3c(cnn3-c3ccc(F)cc3)c2)C(=O)C1(F)F)C1CC1` [Example 96, N-((2R,3R)-4,4-difluoro-1-(1-(4-fluorophenyl)-1H-indazol-5-yl)-5-oxo-2-phenylpyrrolidin-3-yl)cyclopropanecarboxamide], the IC50 is reported as < 100 nM.

Same assay, conditions: read-out: IC50 or EC50
For `CC[C@@H]1[C@@H](NC(=O)C2CC2)[C@@](F)(Cc2ccccc2)C(=O)N1c1ccc2c(cnn2-c2ccc(F)cc2)c1` (racemic) [Example 137, N-(rac-(2R,3R,4S)-4-benzyl-2-ethyl-4-fluoro-1-(1-(4-fluorophenyl)-1H-indazol-5-yl)-5-oxopyrrolidin-3-yl)cyclopropanecarboxamide], the IC50 was < 100 nM. `C[C@@]1(CC(F)F)C(=O)N(c2ccc3c(cnn3-c3ccc(F)cc3)c2)[C@H](c2ccccc2)[C@H]1NC(=O)C1CC1` (racemic) [Example 148, N-(rac-(2R,3S,4S)-4-(2,2-difluoroethyl)-1-(1-(4-fluorophenyl)-1H-indazol-5-yl)-4-methyl-5-oxo-2-phenylpyrrolidin-3-yl)cyclopropanecarboxamide] was tested, and the IC50 was < 100 nM. In the case of `C[C@@]1(CC2CC2)C(=O)N(c2ccc3c(cnn3-c3ccc(F)cc3)c2)[C@H](c2ccccc2)[C@H]1NC(=O)C1CC1` (racemic) [Example 149, N-(rac-(2R,3S,4S)-4-(cyclopropylmethyl)-1-(1-(4-fluorophenyl)-1H-indazol-5-yl)-4-methyl-5-oxo-2-phenylpyrrolidin-3-yl)cyclopropanecarboxamide], the IC50 is reported as < 100 nM. An IC50 of 100 to 1000 nM was found for `O=C(N[C@H]1C(CCc2ccccc2)C(=O)N(c2ccc3c(cnn3-c3ccc(F)cc3)c2)[C@@H]1c1ccccc1)C1CC1` (single isomer, unassigned) [Example 127] in this work. For `CC1(C)C(=O)N(c2ccc3c(cnn3-c3ccc(F)cc3)c2)[C@H](c2ccccc2)[C@H]1NS(C)(=O)=O` [Example 34a, N-((2R,3S)-1-(1-(4-fluorophenyl)-1H-indazol-5-yl)-4,4-dimethyl-5-oxo-2-phenylpyrrolidin-3-yl)methanesulfonamide], the IC50 was < 100 nM. An IC50 of 100 to 1000 nM was found for `CC1(C)C(=O)N(c2ccc3c(cnn3-c3ccc(F)cc3)c2)[C@@H](c2ccccc2)[C@@H]1NS(C)(=O)=O` [Example 34b, N-((2S,3R)-1-(1-(4-fluorophenyl)-1H-indazol-5-yl)-4,4-dimethyl-5-oxo-2-phenylpyrrolidin-3-yl)methanesulfonamide] in this work. An IC50 of 100 to 1000 nM was found for `CC1(C)C(=O)N(c2ccc3c(cnn3-c3ccc(F)cc3)c2)[C@H](c2ccccc2)[C@H]1NC(=O)c1cnco1` [Example 36a, N-((2R,3S)-1-(1-(4-fluorophenyl)-1H-indazol-5-yl)-4,4-dimethyl-5-oxo-2-phenylpyrrolidin-3-yl)oxazole-5-carboxamide] in this work. An IC50 of 100 to 1000 nM was found for `CC1(C)C(=O)N(c2ccc3c(cnn3-c3ccc(F)cc3)c2)[C@@H](c2ccccc2)[C@@H]1NC(=O)c1cnco1` [Example 36b, N-((2S,3R)-1-(1-(4-fluorophenyl)-1H-indazol-5-yl)-4,4-dimethyl-5-oxo-2-phenylpyrrolidin-3-yl)oxazole-5-carboxamide] in this work. An IC50 of 100 to 1000 nM was found for `Cc1ncsc1C(=O)N[C@H]1[C@H](c2ccccc2)N(c2ccc3c(cnn3-c3ccc(F)cc3)c2)C(=O)C1(C)C` [Example 38a, N-((2S,3R)-1-(1-(4-fluorophenyl)-1H-indazol-5-yl)-4,4-dimethyl-5-oxo-2-phenylpyrrolidin-3-yl)-4-methylthiazole-5-carboxamide] in this work. An IC50 of 100 to 1000 nM was found for `Cc1nocc1C(=O)N[C@H]1[C@H](c2ccccc2)N(c2ccc3c(cnn3-c3ccc(F)cc3)c2)C(=O)C1(C)C` [Example 40b, N-((2S,3R)-1-(1-(4-fluorophenyl)-1H-indazol-5-yl)-4,4-dimethyl-5-oxo-2-phenylpyrrolidin-3-yl)-3-methylisoxazole-4-carboxamide] in this work. An IC50 of 1000 to 15000 nM was found for `Cn1cc(C(=O)N[C@H]2[C@H](c3ccccc3)N(c3ccc4c(cnn4-c4ccc(F)cc4)c3)C(=O)C2(C)C)cn1` [Example 41b, N-((2S,3R)-1-(1-(4-fluorophenyl)-1H-indazol-5-yl)-4,4-dimethyl-5-oxo-2-phenylpyrrolidin-3-yl)-1-methyl-1H-pyrazole-4-carboxamide] in this work. An IC50 of 100 to 1000 nM was found for `CC1(C)C(=O)N(c2ccc3c(cnn3-c3ccc(F)cc3)c2)[C@@H](c2ccccc2)[C@@H]1NC(=O)c1cccnc1` [Example 42b, N-((2S,3R)-1-(1-(4-fluorophenyl)-1H-indazol-5-yl)-4,4-dimethyl-5-oxo-2-phenylpyrrolidin-3-yl)nicotinamide] in this work. An IC50 of 1000 to 15000 nM was found for `CC1(C)C(=O)N(c2ccc3c(cnn3-c3ccc(F)cc3)c2)[C@@H](c2ccccc2)[C@@H]1NC(=O)c1ncccn1` [Example 43b, N-((2S,3R)-1-(1-(4-fluorophenyl)-1H-indazol-5-yl)-4,4-dimethyl-5-oxo-2-phenylpyrrolidin-3-yl)pyrimidine-2-carboxamide] in this work. An IC50 of 100 to 1000 nM was found for `Cc1ncc(C(=O)N[C@H]2[C@H](c3ccccc3)N(c3ccc4c(cnn4-c4ccc(F)cc4)c3)C(=O)C2(C)C)o1` [Example 44b, N-((2S,3R)-1-(1-(4-fluorophenyl)-1H-indazol-5-yl)-4,4-dimethyl-5-oxo-2-phenylpyrrolidin-3-yl)-2-methyloxazole-5-carboxamide] in this work. An IC50 of 100 to 1000 nM was found for `Cc1ncoc1C(=O)N[C@H]1[C@H](c2ccccc2)N(c2ccc3c(cnn3-c3ccc(F)cc3)c2)C(=O)C1(C)C` [Example 45b, N-((2S,3R)-1-(1-(4-fluorophenyl)-1H-indazol-5-yl)-4,4-dimethyl-5-oxo-2-phenylpyrrolidin-3-yl)-4-methyloxazole-5-carboxamide] in this work. An IC50 of 100 to 1000 nM was found for `C[C@@H]1C(=O)N(c2ccc3c(cnn3-c3ccc(F)cc3)c2)[C@H](c2ccc(Cl)s2)[C@H]1NS(C)(=O)=O` [Example 114, N-[(2S,3S,4S)-2-(5-Chloro-thiophen-2-yl)-1-[1-(4-fluorophenyl)-1H-indazol-5-yl]-4-methyl-5-oxo-pyrrolidin-3-yl]-methanesulfonic acid amide] in this work. An IC50 of 100 to 1000 nM was found for `O=C(N[C@H]1[C@H](CC(F)F)C(=O)N(c2ccc3c(cnn3-c3ccc(F)cc3)c2)[C@@H]1c1ccccc1)C1CC1` [Example 131, N-((2R,3S,4S)-4-(2,2-difluoroethyl)-1-(1-(4-fluorophenyl)-1H-indazol-5-yl)-5-oxo-2-phenylpyrrolidin-3-yl)cyclopropanecarboxamide] in this work.
